Experimental data published in paper PMC9475553, “SHF Acts as a Novel Tumor Suppressor in Glioblastoma Multiforme by Disrupting STAT3 Dimerization” (Advanced Science, 2022).

What was measured:
global DNA methylation = assay: Global DNA methylation (5-mC ELISA) assay in U87 cells; assay type: cell-based, human; conditions: U87 cells treated with C16; n = 3, p < 0.01
Experimental: Figure 7 Peptide derived from the STAT3‐binding sites of SHF is an effective GBM suppressive strategy. A) Binding model between SHF and STAT3 using ZDOCK server. […] B) IF staining determined the cell penetrability and nuclear‐localization of C16. U251 cells were incubated with C16 or SC for 2 h and performed IF staining using the indicated antibodies. Bars, 10 µm. C) The statical analysis of adsorption equilibrium assay detecting the binding of C16 and SC with recombinant STAT3. D) Pull‐down assay indicating C16 binds STAT3. GST‐STAT3 was incubated with C16 or SC for 2 h, and the pull‐down assay was performed using Anti‐His magnetic beads. E) IP assay showing the effect of C16 on STAT3 dimerization. […] The relative quantification of STAT3 dimerization was listed. […] The relative quantification of STAT3/DNMT1 interaction was listed. […] The relative quantification of STAT3/DNMT1 interaction was listed. […] Positive cells were quantified 20 randomly selected fields per mouse (n = 6, Student's t‐test, **p < 0.01). […]
Global DNA methylation status was quantified by the MethylFlash Global DNA Methylation (5‐mC) ELISA Easy Kit (Epigentek, Brooklyn, NY). Levels of 5‐methylcytosine (5‐mC) were calculated according to the manufacturer's instructions. In brief, the purified and quantified genomic DNA were bound to strip‐wells treated for high DNA affinity. […]

STAT3 dimerization = assay: FRET assay: STAT3 dimerization in U251 cells; assay type: cell-based, human; conditions: U251 cells transfected for 24 h, then C16 2 h; n=3, P < 0.01
Experimental: Spectral fluorescence resonance energy transfer (FRET) assay was used to examine the dimerization of STAT3 and interaction between STAT3 and SHF. The procedure was performed as described previously.^[ [46] ^] Briefly, U251 cells were seeded at a density of 20 000 cells/compartment on coverslips coated with 1% poly‐L‐lysine (Sigma) in 24 well‐plates. For detecting SHF inhibiting STAT3 dimerization, ectopic SHF‐expressing stable U251 cells were transfected with STAT3‐DsRed and STAT3‐EGFP. For detecting SHF binding STAT3, U251 cells were transfected with SHF‐DsRed and STAT3‐EGFP. Cells were imaged on a Leica TCS SP8 confocal microscope (40× objective and 10× objective, 488 nm Argon laser line) after 24 h. Cells were excited with 488 nm laser (donor), and the emission of the acceptor DsRed was recorded at 565 nm. The FRET efficiency was calculated on a pixel‐by‐pixel basis with the following equation: FRET efficiency = FRETcorr / (FRETcorr + Donor). […] To increase the reliability of the calculations and prevent noise from distorting the calculated ratio, we excluded pixels below 50 intensity units and saturated pixels from the calculations and set their intensities to zero. […]
Supplementary Fig. 8 Quantitative analysis of normalized FRET ratio in U251 cells (n=3, […]

C16: peptide spanning SHF amino acids 388–421, palmitic acid at the N-terminus, amidated C-terminus, 3× His tags added to the C-terminal (PFSSVPEIVHHYASRKLPIKGAEHMSLLYPVAIR; palmitic acid at the N-terminus; amidated C-terminus; left off: 3× His tags, C-terminal, kept)
global DNA methylation (global DNA methylation): significant decrease | inhibition of STAT3 dimerization (FRET) (STAT3 dimerization): effectively inhibits STAT3 dimerization
